Measurements: BindingDB's records for PubMed 7518514 (Abbott Laboratories, 1994)

How the values were obtained:
[1] = target: 5-hydroxytryptamine receptor 1A/1B/1D/2C (Homo sapiens, UniProt P08908+P28221+P28222+P28335)
Substance-P receptor = Substance-P receptor (Homo sapiens, UniProt P25103)
Adenosine receptor A1 = Adenosine receptor A1 (Homo sapiens, UniProt P30542)
Adenosine receptor A2a = Adenosine receptor A2a (Homo sapiens, UniProt P29274)
[2] = target: Sodium-dependent dopamine transporter (Homo sapiens, UniProt Q01959)
Chain of Sodium-dependent dopamine transporter (Q01959 whole entry): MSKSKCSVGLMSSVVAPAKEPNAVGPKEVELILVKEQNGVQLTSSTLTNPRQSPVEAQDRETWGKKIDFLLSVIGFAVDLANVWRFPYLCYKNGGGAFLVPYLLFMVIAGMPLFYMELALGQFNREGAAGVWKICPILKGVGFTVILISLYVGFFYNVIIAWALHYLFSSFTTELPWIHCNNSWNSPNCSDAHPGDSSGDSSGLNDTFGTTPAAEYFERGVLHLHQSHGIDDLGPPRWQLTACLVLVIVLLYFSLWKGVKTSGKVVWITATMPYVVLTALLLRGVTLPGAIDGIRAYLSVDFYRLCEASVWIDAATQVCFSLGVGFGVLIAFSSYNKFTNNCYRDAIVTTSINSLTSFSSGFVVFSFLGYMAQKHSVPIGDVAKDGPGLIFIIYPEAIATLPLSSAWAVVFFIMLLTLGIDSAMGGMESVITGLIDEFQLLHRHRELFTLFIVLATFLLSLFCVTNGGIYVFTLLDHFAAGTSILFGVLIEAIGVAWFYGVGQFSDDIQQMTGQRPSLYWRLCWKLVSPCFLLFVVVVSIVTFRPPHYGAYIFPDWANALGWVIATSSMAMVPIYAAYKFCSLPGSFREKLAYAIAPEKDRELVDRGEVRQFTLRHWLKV

[3] = target: Sodium-dependent noradrenaline transporter (Homo sapiens, UniProt P23975)
Chain of Sodium-dependent noradrenaline transporter (P23975 whole entry): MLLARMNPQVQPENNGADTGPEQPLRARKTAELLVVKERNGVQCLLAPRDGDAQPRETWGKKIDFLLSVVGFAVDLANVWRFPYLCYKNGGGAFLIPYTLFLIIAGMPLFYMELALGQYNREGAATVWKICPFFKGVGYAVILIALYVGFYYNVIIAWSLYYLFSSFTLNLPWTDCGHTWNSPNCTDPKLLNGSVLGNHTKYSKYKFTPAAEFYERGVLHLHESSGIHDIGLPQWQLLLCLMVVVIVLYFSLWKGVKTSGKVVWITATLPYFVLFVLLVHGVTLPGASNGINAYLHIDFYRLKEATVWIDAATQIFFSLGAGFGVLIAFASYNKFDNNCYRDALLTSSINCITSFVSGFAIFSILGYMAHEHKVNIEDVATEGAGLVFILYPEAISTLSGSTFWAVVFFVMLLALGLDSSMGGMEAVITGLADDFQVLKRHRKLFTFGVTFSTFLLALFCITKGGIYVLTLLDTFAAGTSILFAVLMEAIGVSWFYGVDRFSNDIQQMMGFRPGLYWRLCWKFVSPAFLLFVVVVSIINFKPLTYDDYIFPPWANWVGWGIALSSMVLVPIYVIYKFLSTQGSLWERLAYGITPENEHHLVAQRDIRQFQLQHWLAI

Histamine H1 receptor = Histamine H1 receptor (Homo sapiens, UniProt P35367)
Chain of Histamine H1 receptor (P35367 whole entry): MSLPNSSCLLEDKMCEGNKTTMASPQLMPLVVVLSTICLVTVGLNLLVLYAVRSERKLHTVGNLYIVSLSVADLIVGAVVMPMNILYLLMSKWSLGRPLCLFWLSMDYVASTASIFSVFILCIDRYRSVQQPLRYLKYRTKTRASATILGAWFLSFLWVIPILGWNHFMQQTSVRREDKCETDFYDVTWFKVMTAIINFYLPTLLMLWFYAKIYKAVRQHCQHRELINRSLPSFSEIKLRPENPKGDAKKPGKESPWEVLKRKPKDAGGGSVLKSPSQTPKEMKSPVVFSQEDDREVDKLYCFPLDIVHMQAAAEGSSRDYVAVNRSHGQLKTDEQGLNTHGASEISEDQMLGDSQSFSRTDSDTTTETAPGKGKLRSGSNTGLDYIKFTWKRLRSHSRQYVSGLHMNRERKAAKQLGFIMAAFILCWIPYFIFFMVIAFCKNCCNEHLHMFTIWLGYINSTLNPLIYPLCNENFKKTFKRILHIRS

[4] = target: 5-hydroxytryptamine receptor 3A (Homo sapiens, UniProt P46098)
D(2) dopamine receptor = D(2) dopamine receptor (Homo sapiens, UniProt P14416)
Chain of D(2) dopamine receptor (P14416 whole entry): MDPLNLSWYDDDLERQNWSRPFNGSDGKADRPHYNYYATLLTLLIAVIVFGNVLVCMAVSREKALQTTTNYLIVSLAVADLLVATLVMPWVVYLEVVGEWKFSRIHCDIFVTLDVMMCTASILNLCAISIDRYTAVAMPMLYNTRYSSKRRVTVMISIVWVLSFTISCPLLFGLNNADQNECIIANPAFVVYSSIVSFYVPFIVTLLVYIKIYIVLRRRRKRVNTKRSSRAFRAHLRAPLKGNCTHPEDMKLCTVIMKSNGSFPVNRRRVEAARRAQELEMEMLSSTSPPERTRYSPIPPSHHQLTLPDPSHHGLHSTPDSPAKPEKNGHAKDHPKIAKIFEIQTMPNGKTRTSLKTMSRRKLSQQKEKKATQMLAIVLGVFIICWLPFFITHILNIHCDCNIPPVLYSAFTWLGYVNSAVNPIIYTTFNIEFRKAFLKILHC

D(1A) dopamine receptor = D(1A) dopamine receptor (Homo sapiens, UniProt P21728)
Chain of D(1A) dopamine receptor (P21728 whole entry): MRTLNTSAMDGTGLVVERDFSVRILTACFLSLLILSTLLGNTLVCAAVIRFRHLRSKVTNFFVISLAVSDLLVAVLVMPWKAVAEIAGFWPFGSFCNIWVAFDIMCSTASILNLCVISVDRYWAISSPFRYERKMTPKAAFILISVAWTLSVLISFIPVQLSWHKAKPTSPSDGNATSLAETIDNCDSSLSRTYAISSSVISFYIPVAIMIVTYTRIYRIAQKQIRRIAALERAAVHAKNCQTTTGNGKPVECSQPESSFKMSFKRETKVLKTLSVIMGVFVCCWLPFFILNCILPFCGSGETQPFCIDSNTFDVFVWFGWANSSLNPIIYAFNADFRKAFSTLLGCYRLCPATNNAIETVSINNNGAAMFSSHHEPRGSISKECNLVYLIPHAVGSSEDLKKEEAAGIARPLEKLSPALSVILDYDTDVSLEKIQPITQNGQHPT

[5] = target: 5-hydroxytryptamine receptor 2A (Sus scrofa, UniProt P50129)
Adenylate cyclase type 9 = Adenylate cyclase type 9 (Homo sapiens, UniProt O60503)
[6] = target: Solute carrier family 22 member 1 (Rattus norvegicus, UniProt Q63089)
Chain of Solute carrier family 22 member 1 (Q63089 whole entry): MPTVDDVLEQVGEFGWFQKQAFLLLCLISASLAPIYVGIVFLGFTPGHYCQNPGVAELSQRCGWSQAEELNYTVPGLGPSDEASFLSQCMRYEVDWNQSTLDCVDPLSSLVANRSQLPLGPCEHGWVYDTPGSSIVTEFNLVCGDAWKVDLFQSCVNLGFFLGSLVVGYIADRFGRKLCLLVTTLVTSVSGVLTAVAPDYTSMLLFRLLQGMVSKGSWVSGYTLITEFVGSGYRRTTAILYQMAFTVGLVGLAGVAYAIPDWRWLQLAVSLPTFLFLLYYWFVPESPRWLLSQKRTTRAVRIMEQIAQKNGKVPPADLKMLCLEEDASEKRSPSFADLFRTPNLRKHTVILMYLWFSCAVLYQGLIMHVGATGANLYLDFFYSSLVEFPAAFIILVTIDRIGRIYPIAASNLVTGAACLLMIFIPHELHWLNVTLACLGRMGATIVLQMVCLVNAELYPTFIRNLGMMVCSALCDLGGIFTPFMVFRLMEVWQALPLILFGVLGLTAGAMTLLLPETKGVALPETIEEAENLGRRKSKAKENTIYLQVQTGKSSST

[7] = target: Adrenergic alpha2 receptor (Mesocricetus auratus, UniProt Q60533)
[8] = target: Type-2 angiotensin II receptor (Homo sapiens, UniProt P50052)
[9] = target: Voltage-dependent N-type calcium channel subunit alpha-1B (Rattus norvegicus, UniProt Q02294)
[10] = target: Voltage-dependent T-type calcium channel subunit alpha-1H (Homo sapiens, UniProt O95180)
[11] = target: Chloride channel protein 1 (Homo sapiens, UniProt P35523)
[12] = target: Muscarinic acetylcholine receptor M1 (Mus musculus, UniProt P12657)
[13] = target: Gamma-aminobutyric acid type B receptor subunit 1 (Homo sapiens, UniProt Q9UBS5)
[14] = target: Glutamate receptor ionotropic, kainate 2 (Homo sapiens, UniProt Q13002)
[15] = target: Glutamate receptor ionotropic, NMDA 1 (Rattus norvegicus, UniProt P35439)
GLRA1 protein = GLRA1 protein (Homo sapiens, UniProt Q14C71)
[16] = target: Inositol-tetrakisphosphate 1-kinase (Homo sapiens, UniProt Q13572)
Beta-nerve growth factor = Beta-nerve growth factor (Homo sapiens, UniProt P01138)
Chain of Beta-nerve growth factor (P01138 122-241 limits assumed): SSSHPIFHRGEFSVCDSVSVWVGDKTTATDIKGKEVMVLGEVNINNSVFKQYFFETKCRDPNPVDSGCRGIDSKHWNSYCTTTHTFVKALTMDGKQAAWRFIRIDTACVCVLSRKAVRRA

Apamin = Apamin (Apis mellifera, UniProt P01500)
Protein kinase C = Protein kinase C (Drosophila melanogaster, UniProt P13678)
[17] = target: Outer capsid protein sigma-1 (Reovirus type 3 (strain Dearing), UniProt P03528)
Chain of Outer capsid protein sigma-1 (P03528 whole entry): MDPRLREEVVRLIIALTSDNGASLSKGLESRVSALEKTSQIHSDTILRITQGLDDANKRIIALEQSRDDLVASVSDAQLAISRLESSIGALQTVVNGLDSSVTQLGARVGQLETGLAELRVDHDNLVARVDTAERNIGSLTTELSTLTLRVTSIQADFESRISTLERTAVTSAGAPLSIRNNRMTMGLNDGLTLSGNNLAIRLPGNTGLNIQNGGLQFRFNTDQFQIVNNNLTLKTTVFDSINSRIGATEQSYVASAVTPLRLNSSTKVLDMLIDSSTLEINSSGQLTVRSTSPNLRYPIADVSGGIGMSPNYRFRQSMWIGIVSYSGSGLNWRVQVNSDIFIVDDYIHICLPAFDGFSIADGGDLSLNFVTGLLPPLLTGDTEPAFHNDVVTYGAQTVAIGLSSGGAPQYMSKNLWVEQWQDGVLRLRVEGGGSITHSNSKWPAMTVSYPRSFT

VIP peptides = VIP peptides (Homo sapiens, UniProt P01282)
[18] = target: Beta-2 adrenergic receptor (Mus musculus, UniProt P18762)
Glutamate receptor 3 = Glutamate receptor 3 (Homo sapiens, UniProt P42263)
Substance-K receptor = Substance-K receptor (Bos taurus, UniProt P05363)
Chain of Substance-K receptor (P05363 whole entry): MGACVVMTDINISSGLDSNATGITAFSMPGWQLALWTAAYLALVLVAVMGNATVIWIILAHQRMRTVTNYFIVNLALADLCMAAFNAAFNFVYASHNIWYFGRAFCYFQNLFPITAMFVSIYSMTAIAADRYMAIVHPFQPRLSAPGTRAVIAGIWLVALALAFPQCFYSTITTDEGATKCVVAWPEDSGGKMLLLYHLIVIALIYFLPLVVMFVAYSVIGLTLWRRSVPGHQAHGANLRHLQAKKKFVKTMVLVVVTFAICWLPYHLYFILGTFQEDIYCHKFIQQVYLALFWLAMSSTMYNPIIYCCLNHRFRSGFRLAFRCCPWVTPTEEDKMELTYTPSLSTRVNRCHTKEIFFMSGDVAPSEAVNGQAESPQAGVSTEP

[19] = target: Gamma-aminobutyric acid receptor subunit alpha-1 (Homo sapiens, UniProt P14867)

Measured: Ki

Chain of Substance-P receptor (P25103 whole entry): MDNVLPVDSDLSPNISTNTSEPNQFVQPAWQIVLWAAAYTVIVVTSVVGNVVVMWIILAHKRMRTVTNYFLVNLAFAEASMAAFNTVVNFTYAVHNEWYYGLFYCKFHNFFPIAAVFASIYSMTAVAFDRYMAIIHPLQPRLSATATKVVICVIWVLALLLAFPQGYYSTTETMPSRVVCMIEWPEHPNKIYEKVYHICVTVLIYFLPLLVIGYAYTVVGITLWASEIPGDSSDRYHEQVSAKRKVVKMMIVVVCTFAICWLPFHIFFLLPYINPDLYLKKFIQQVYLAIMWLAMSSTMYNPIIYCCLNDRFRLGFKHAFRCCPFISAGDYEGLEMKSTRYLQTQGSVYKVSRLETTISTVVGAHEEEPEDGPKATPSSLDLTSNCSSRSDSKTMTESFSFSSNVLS
Chain of Adenosine receptor A2a (P29274 whole entry): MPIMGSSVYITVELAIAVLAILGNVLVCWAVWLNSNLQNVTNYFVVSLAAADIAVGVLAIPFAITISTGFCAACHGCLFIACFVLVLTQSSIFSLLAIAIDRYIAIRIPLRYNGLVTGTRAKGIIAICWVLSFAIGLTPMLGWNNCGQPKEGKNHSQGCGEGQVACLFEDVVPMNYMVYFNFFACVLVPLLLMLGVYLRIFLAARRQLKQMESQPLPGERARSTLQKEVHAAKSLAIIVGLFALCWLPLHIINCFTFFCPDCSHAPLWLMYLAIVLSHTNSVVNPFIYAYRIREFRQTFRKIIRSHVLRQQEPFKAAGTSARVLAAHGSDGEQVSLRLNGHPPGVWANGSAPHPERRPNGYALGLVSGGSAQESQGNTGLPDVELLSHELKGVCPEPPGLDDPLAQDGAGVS

Cc1cc([C@@H]2CCCN2C)on1 [ABT-418]
> 10 µM: all assays above
